Measurements: ChEMBL document CHEMBL3098096, “Design, synthesis and antibacterial activities of 5-(pyrazin-2-yl)-4H-1,2,4-triazole-3-thiol derivatives containing Schiff base formation as FabH inhibitory” (Bioorg Med Chem Lett, 2014)
In brackets after ≈: the same amount, converted by molar mass.

How the values were obtained:
[1] = tested on: Pseudomonas aeruginosa; test: Antimicrobial activity against Pseudomonas aeruginosa ATCC 27853 assessed as […] growth inhibition after 24 hrs by two-fold serial broth dilution method; format: functional; details: ATCC 27853, 24 h
[2] = tested on: NIH3T3; test: Cytotoxicity against mouse NIH/3T3 cells after 24 hrs by MTT assay; format: cell-based; details: NIH3T3, 24 h
[3] = tested on: Bacillus subtilis; test: Antimicrobial activity against Bacillus subtilis ATCC 530 assessed as […] growth inhibition after 24 hrs by two-fold serial broth dilution method; format: functional; details: ATCC 530, 24 h
[4] = target: T1, 3-oxoacyl-[acyl-carrier-protein] synthase 3 (Escherichia coli, UniProt C3TDZ2); test: Inhibition of Escherichia coli FabH overexpressed in Escherichia coli DH10B cells assessed as incorporation of [3H] in the product after 25 mins by liquid scintillation counting analysis
T1 sequence (C3TDZ2 whole entry): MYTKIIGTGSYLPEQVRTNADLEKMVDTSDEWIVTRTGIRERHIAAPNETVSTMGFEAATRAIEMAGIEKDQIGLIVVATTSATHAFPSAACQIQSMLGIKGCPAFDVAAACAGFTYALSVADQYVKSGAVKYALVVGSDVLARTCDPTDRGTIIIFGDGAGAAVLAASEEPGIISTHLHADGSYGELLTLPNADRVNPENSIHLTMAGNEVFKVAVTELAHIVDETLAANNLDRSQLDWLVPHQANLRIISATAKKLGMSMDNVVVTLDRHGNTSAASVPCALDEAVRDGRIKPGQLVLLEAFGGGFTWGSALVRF

[5] = tested on: Bacillus amyloliquefaciens; test: Antimicrobial activity against Bacillus amyloliquefaciens 23842 assessed as […] growth inhibition after 24 hrs by two-fold serial broth dilution method; format: functional; details: Bacillus amyloliquefaciens, 23842, 24 h
[6] = tested on: Staphylococcus aureus; test: Antimicrobial activity against Staphylococcus aureus ATCC 25923 assessed as […] growth inhibition after 24 hrs by two-fold serial broth dilution method; format: functional; details: ATCC 25923, 24 h
[7] = Toxicity in human erythrocytes assessed as hemolytic activity by spectrophotometric analysis; format: cell-based; details: erythrocyte
[8] = tested on: Escherichia coli; test: Antimicrobial activity against Escherichia coli ATCC 25922 assessed as […] growth inhibition after 24 hrs by two-fold serial broth dilution method; format: functional; details: ATCC 25922, 24 h

Row | MIC [1] [µg/mL] | MIC [3] [µg/mL] | IC50 [4] [µM] | MIC [5] [µg/mL] | MIC [6] [µg/mL] | MIC [8] [µg/mL] | SMILES | IC50 [2] [µM] | LC30 [7] [µg/mL]
1 | 50 (≈ 146 µM) | 25 (≈ 73 µM) | 45.5 | 25 (≈ 73 µM) | 12.5 (≈ 36.5 µM) | 25 (≈ 73 µM) | COc1ccc(/C=N/n2c(S)nnc2-c2cnccn2)cc1OC | 163 | > 10000
2 | 12.5 (≈ 33.6 µM) | 3.13 (≈ 8.4 µM) | 12.8 | 6.25 (≈ 16.8 µM) | 25 (≈ 67.1 µM) | 6.25 (≈ 16.8 µM) | COc1cc(OC)c(OC)cc1/C=N/n1c(S)nnc1-c1cnccn1 | 142 | > 10000
3 | 12.5 (≈ 33.6 µM) | 6.25 (≈ 16.8 µM) | 15.1 | 25 (≈ 67.1 µM) | 12.5 (≈ 33.6 µM) | 6.25 (≈ 16.8 µM) | COc1cc(/C=N/n2c(S)nnc2-c2cnccn2)cc(OC)c1OC | 169 | > 10000
4 | 25 (≈ 80 µM) | 25 (≈ 80 µM) | 22.9 | 25 (≈ 80 µM) | 25 (≈ 80 µM) | 12.5 (≈ 40 µM) | COc1ccccc1/C=N/n1c(S)nnc1-c1cnccn1 | 173 | > 10000
5 | 50 (≈ 160 µM) | 50 (≈ 160 µM) |  | 50 (≈ 160 µM) | > 50 | 25 (≈ 80 µM) | COc1cccc(/C=N/n2c(S)nnc2-c2cnccn2)c1 |  | 
6 | 25 (≈ 76.4 µM) | 25 (≈ 76.4 µM) |  | 50 (≈ 153 µM) | > 50 | 25 (≈ 76.4 µM) | O=[N+]([O-])c1ccc(/C=N/n2c(S)nnc2-c2cnccn2)cc1 |  | 
7 | 25 (≈ 83.8 µM) | 25 (≈ 83.8 µM) | 29.3 | 25 (≈ 83.8 µM) | 50 (≈ 168 µM) | 12.5 (≈ 41.9 µM) | Oc1ccc(/C=N/n2c(S)nnc2-c2cnccn2)cc1 | 175 | > 10000
8 | 1.56 (≈ 5.23 µM) | 0.78 (≈ 2.61 µM) | 5.2 | 0.78 (≈ 2.61 µM) | 1.56 (≈ 5.23 µM) | 0.39 (≈ 1.31 µM) | Oc1ccccc1/C=N/n1c(S)nnc1-c1cnccn1 | 131 | > 10000
9 | 25 (≈ 83.8 µM) | 50 (≈ 168 µM) | 48.3 | 50 (≈ 168 µM) | > 50 | 25 (≈ 83.8 µM) | Oc1cccc(/C=N/n2c(S)nnc2-c2cnccn2)c1 | 151 | > 10000
10 | 12.5 (≈ 39.8 µM) | 25 (≈ 79.5 µM) | 24.6 | 25 (≈ 79.5 µM) | 25 (≈ 79.5 µM) | 12.5 (≈ 39.8 µM) | Oc1ccc(/C=N/n2c(S)nnc2-c2cnccn2)cc1O | 148 | > 10000
11 | 25 (≈ 81.1 µM) | 25 (≈ 81.1 µM) |  | 50 (≈ 162 µM) | 50 (≈ 162 µM) | 12.5 (≈ 40.5 µM) | Sc1nnc(-c2cnccn2)n1/N=C/C=C/c1ccccc1 |  | 
12 | 50 (≈ 138 µM) | 25 (≈ 69.2 µM) |  | 25 (≈ 69.2 µM) | 50 (≈ 138 µM) | 50 (≈ 138 µM) | Sc1nnc(-c2cnccn2)n1/N=C/c1ccc(Br)cc1 |  | 
13 | 25 (≈ 88.5 µM) | 25 (≈ 88.5 µM) |  | 50 (≈ 177 µM) | 50 (≈ 177 µM) | 25 (≈ 88.5 µM) | Sc1nnc(-c2cnccn2)n1/N=C/c1ccccc1 |  | 
14 | > 50 | 50 (≈ 166 µM) |  | 50 (≈ 166 µM) | 50 (≈ 166 µM) | 25 (≈ 83.2 µM) | Fc1ccc(/C=N/n2c(S)nnc2-c2cnccn2)cc1 |  | 
15 | > 50 | > 50 | > 100 | 50 (≈ 158 µM) | 50 (≈ 158 µM) | 50 (≈ 158 µM) | Sc1nnc(-c2cnccn2)n1/N=C/c1ccc(Cl)cc1 | 218 | > 10000
16 | 50 (≈ 169 µM) | 25 (≈ 84.4 µM) | 27.1 | 25 (≈ 84.4 µM) | 25 (≈ 84.4 µM) | 12.5 (≈ 42.2 µM) | Cc1ccc(/C=N/n2c(S)nnc2-c2cnccn2)cc1 | 156 | > 10000
17 | 25 (≈ 80 µM) | 50 (≈ 160 µM) |  | 25 (≈ 80 µM) | 50 (≈ 160 µM) | 12.5 (≈ 40 µM) | COc1ccc(/C=N/n2c(S)nnc2-c2cnccn2)cc1 |  | 
18 | 50 (≈ 166 µM) | 50 (≈ 166 µM) |  | 50 (≈ 166 µM) | 50 (≈ 166 µM) | 25 (≈ 83.2 µM) | Fc1ccccc1/C=N/n1c(S)nnc1-c1cnccn1 |  | 
19 | > 50 | > 50 |  | 50 (≈ 166 µM) | 50 (≈ 166 µM) | 25 (≈ 83.2 µM) | Fc1cccc(/C=N/n2c(S)nnc2-c2cnccn2)c1 |  | 
20 | > 50 | > 50 | > 100 | > 50 | 50 (≈ 142 µM) | 50 (≈ 142 µM) | Sc1nnc(-c2cnccn2)n1/N=C/c1ccc(Cl)cc1Cl | 206 | > 10000
21 | 1.56 (≈ 3.23 µM) | 3.13 (≈ 6.47 µM) | 6.3 | 1.56 (≈ 3.23 µM) | 1.56 (≈ 3.23 µM) | 3.13 (≈ 6.47 µM) | NC[C@H]1O[C@H](O[C@H]2[C@H](O)[C@@H](O[C@H]3O[C@H](CO)[C@@H](O)[C@H](N)[C@H]3O)[C@H](N)C[C@@H]2N)[C@H](N)[C@@H](O)[C@@H]1O [BEKANAMYCIN] | 140 | > 10000
